BindingDB's records for doi:10.1021/jm0609622 (Schering-Plough Research Institute, 2006)

Assay: Inhibition of CXCL1-induced human neutrophil chemotaxis

IC50 | SMILES
2.4 nM | Cc1ccc([C@@H](C)Nc2c(Nc3cccc(C(=O)N(C)C)c3O)c(=O)c2=O)o1 [(R)-2-hydroxy-N,N-dimethyl-3-(2-(1-(5-methylfuran-2-yl)ethylamino)-3,4-dioxocyclobut-1-enylamino)benzamide]
48 nM | CC[C@@H](Nc1c(Nc2cccc(C(=O)N(C)C)c2O)c(=O)c1=O)c1ccccc1 [(R)-3-(3,4-dioxo-2-(1-phenylpropylamino)cyclobut-1-enylamino)-2-hydroxy-N,N-dimethylbenzamide]
